From ChEMBL document CHEMBL1156849, “Synthesis, immunosuppressive activity and structure-activity relationship study of a new series of 4-N-piperazinyl-thieno[2,3-d]pyrimidine analogues” (Bioorg Med Chem Lett, 2010)

tested on: Lymphocyte; assay: Immunosuppressive activity in lymphocytes by mixed lymphocyte reaction assay; assay type: functional, cell-based

SMILES | IC50 [nM]
CN(C(=O)CN1CCN(c2nc(N)nc3sccc23)CC1)c1ccccc1 | 8120
Nc1nc(N2CCN(C(=O)c3cccnc3)CC2)c2cc(-c3ccc(F)cc3)sc2n1 | > 10000
Nc1nc(N2CCN(C(=O)CCc3ccccc3)CC2)c2cc(-c3ccc(F)cc3)sc2n1 | 6990
C/C=C/C[C@@H](C)[C@@H](O)[C@H]1C(=O)N[C@@H](CC)C(=O)N(C)CC(=O)N(C)[C@@H](CC(C)C)C(=O)N[C@@H](C(C)C)C(=O)N(C)[C@@H](CC(C)C)C(=O)N[C@@H](C)C(=O)N[C@H](C)C(=O)N(C)[C@@H](CC(C)C)C(=O)N(C)[C@@H](CC(C)C)C(=O)N(C)[C@@H](C(C)C)C(=O)N1C [CYCLOSPORINE] | 54
Nc1nc(N2CCN(CCOc3ccccc3)CC2)c2ccsc2n1 | 9640
Nc1nc(N2CCN(C(=O)C3CCCCC3)CC2)c2cc(-c3ccc(F)cc3)sc2n1 | > 10000
CC(C)N(C(=O)N1CCN(c2nc(N)nc3sc(-c4ccc(F)cc4)cc23)CC1)C(C)C | 8200

More lines, now with the values ahead:

IC50 [nM] | SMILES
320 | Nc1nc(N2CCN(C(=O)COc3ccc(Br)cc3)CC2)c2ccsc2n1
72 | COc1ccc(OCC(=O)N2CCN(c3nc(N)nc4sccc34)CC2)cc1
66 | Nc1nc(N2CCN(C(=O)COc3ccc(F)cc3)CC2)c2ccsc2n1
330 | Nc1nc(N2CCN(C(=O)COc3ccc(Cl)cc3)CC2)c2ccsc2n1
210 | Cc1cccc(OCC(=O)N2CCN(c3nc(N)nc4sccc34)CC2)c1
780 | Nc1nc(N2CCN(C(=O)COc3ccccc3)CC2)c2ccsc2n1
930 | Cc1cccc(NC(=O)N2CCN(c3nc(N)nc4sccc34)CC2)c1
6700 | Nc1nc(N2CCN(C(=O)Nc3ccc(Cl)cc3)CC2)c2ccsc2n1
